US5525627A, “Esters of acyl carnitines with long-chain aliphatic alcohols and pharmaceutical compositions containing same having antimycotic activity” (Sigma-Tau Industrie Farmaceutiche Riunite S.p.A., priority 1992, dated 1996)

Legend:
Candida albicans (562) = assay: MIC for yeast and yeast-like strains; format: cell-based; conditions: 48 hours, 35° C., read-out: Minimal Inhibitory Concentration (MIC)
Method in brief: (§1)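 Broth microdilution in Yeast Nitrogen Base with 0.15% asparagine and 1.0% glucose, buffered with 0.165 M MOPS. Inocula from overnight Sabouraud broth cultures (48 h for Cryptococcus), final approx. 5.0×10^4 CFU/ml, mixed with equal volume of compound solution.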

Candida albicans (A 54) = assay: MIC for yeast and yeast-like strains; format: cell-based; conditions: 48 hours, 35° C., read-out: Minimal Inhibitory Concentration (MIC)
Method in brief: as §1

Candida albicans (Ca 2) = assay: MIC for yeast and yeast-like strains; format: cell-based; conditions: 48 hours, 35° C., read-out: Minimal Inhibitory Concentration (MIC)
Method in brief: as §1

Candida krusei (ISS 1) = assay: MIC for yeast and yeast-like strains; format: cell-based; conditions: Pichia kudriavzevii; 48 hours, 35° C.; read-out: Minimal Inhibitory Concentration (MIC)
Method in brief: as §1

[1] = system: Candida tropicalis (5705); assay: MIC for yeast and yeast-like strains; format: cell-based; conditions: 48 hours, 35° C., read-out: Minimal Inhibitory Concentration (MIC)
Method in brief: as §1

[2] = system: Cryptococcus neoformans (4711); assay: MIC for yeast and yeast-like strains; format: cell-based; conditions: 48 hours, 35° C., read-out: Minimal Inhibitory Concentration (MIC)
Method in brief: as §1

[3] = system: Saccharomyces cerevisiae (ATCC 7752); assay: MIC for yeast and yeast-like strains; format: cell-based; conditions: ATCC7752, 48 hours, 35° C., read-out: Minimal Inhibitory Concentration (MIC)
Method in brief: as §1

[4] = system: Torulopsis candida (D.S.); assay: MIC for yeast and yeast-like strains; format: cell-based; conditions: Suzukiozyma candida; 48 hours, 35° C.; read-out: Minimal Inhibitory Concentration (MIC)
Method in brief: as §1

[5] = system: Aspergillus fumigatus (1/A); assay: MIC for filamentous fungi; format: cell-based; conditions: read-out: Minimal Inhibitory Concentration (MIC)
Method in brief: (§2)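 Filamentous fungi (Aspergillus, Fusarium, Mucor, Penicillium strains) inoculated with conidia from 72-hour Sabouraud agar cultures, harvested in Sabouraud medium with Tween 80, at 5.0×10^4 CFU/ml. Dilution procedure and MIC/MFC evaluation followed the yeast-like fungi method.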

[6] = system: Aspergillus fumigatus (2/A); assay: MIC for filamentous fungi; format: cell-based; conditions: read-out: Minimal Inhibitory Concentration (MIC)
Method in brief: as §2

[7] = system: Aspergillus fumigatus (ATCC 28212); assay: MIC for filamentous fungi; format: cell-based; conditions: ATCC28212, read-out: Minimal Inhibitory Concentration (MIC)
Method in brief: as §2

[8] = system: Aspergillus fumigatus (C/1); assay: MIC for filamentous fungi; format: cell-based; conditions: read-out: Minimal Inhibitory Concentration (MIC)
Method in brief: as §2

[9] = system: Aspergillus niger (ATCC 16404); assay: MIC for filamentous fungi; format: cell-based; conditions: ATCC16404, read-out: Minimal Inhibitory Concentration (MIC)
Method in brief: as §2

Fusarium sp. (ISS 1) = assay: MIC for filamentous fungi; format: cell-based; conditions: read-out: Minimal Inhibitory Concentration (MIC)
Method in brief: as §2

Mucor mucedo (ATCC 7941) = assay: MIC for filamentous fungi; format: cell-based; conditions: ATCC7941, read-out: Minimal Inhibitory Concentration (MIC)
Method in brief: as §2

Penicillium sp. (1302) = assay: MIC for filamentous fungi; format: cell-based; conditions: read-out: Minimal Inhibitory Concentration (MIC)
Method in brief: as §2

filamentous fungi = assay: MIC / MFC for filamentous fungi, all strains; format: cell-based, Aspergillus, Fusarium, Mucor, Penicillium; conditions: versus susceptible strains; read-out: Mean MIC values
Method in brief: as §2

[10] = system: Epidermophyton floccosum (IHEM 3495); assay: MIC for dermatophytic fungi; format: cell-based; conditions: 35° C., 96 hours, read-out: Minimal Inhibitory Concentration (MIC)
Procedure: (§3) The following strains were used: Trichophyton menthagrophytes ATCC 9533, Trichophyton rubrum IHEM 4274, Microsporum canis IHEM 3522, Epydermophyton floccosum IHEM 3495. The tested substances were: ST 722, ST 1033, ST 1037, ST 1050, ST 1051, ST 1052,. ST 1053.
(§4) The assay was performed following the same procedure described for the yeasts, by using 7-day fungi cultures grown at 30° C. in Potato Dextrose agar, and harvested with Sabouraud broth and Tween 80 (0.5%).
(§5) After washing with Yeast Nitrogen Base, supplemented with asparagine and glucose (as carbon source), the fungal suspension was fragmented using a tissue grinder until the largest clumps or aggregates were undetectable within the grinder. This fungal suspension was then appropriately diluted in YNB to yield a concentration of 2.0×10^5 infective particles/ml (small mycelium fragments, micro-and macroaleuriospores).
(§6) Volumes of 100 μl both of the fungal suspensions and substance solutions, two-fold serially diluted in assay medium, were distributed into each well of a microtiter plate (96 wells, round bottom), which was incubated at 35° C. for 96 hours.

[11] = system: Microsporum canis (IHEM 3522); assay: MIC for dermatophytic fungi; format: cell-based; conditions: 35° C., 96 hours, read-out: Minimal Inhibitory Concentration (MIC)
Procedure: as §3, §4, §5, §6

[12] = system: Trichophyton menthagrophites (ATCC 9533); assay: MIC for dermatophytic fungi; format: cell-based; conditions: ATCC9533, 35° C., 96 hours, read-out: Minimal Inhibitory Concentration (MIC)
Procedure: as §3, §4, §5, §6

[13] = system: Trichophyton rubrum (IHEM 4274); assay: MIC for dermatophytic fungi; format: cell-based; conditions: 35° C., 96 hours, read-out: Minimal Inhibitory Concentration (MIC)
Procedure: as §3, §4, §5, §6

`CCCCCCCCCCCOC(=O)C[C@H](C[N+](C)(C)C)OC(=O)CC(C)C` [ST 722, isovaleryl-L-carnitine undecyl ester chloride] showed an MIC (Candida albicans (562)) of 3.12 µg/mL, an MIC (Candida albicans (A 54)) of 3.12 µg/mL and an MIC (Candida albicans (Ca 2)) of 1.56 µg/mL. For the same molecule, the MIC (Candida krusei (ISS 1)) was 3.12 µg/mL, the MIC [1] was 3.12 µg/mL and the MIC [2] was 1.56 µg/mL. It also gave an MIC [3] of 3.12 µg/mL, an MIC [4] of 6.25 µg/mL and an MIC [5] of 12.5 µg/mL. It also gave an MIC [6] of 12.5 µg/mL, an MIC [7] of 12.5 µg/mL and an MIC [8] of 12.5 µg/mL. For the same molecule, the MIC [9] was 12.5 µg/mL, the MIC (Fusarium sp. (ISS 1)) was 6.25 µg/mL and the MIC (Mucor mucedo (ATCC 7941)) was 50 µg/mL. It also gave an MIC (Penicillium sp. (1302)) of 12.5 µg/mL, an MIC (filamentous fungi) of 16.4 µg/mL and an MIC [10] of 50 µg/mL. For the same molecule, the MIC [11] was 25 µg/mL, the MIC [12] was 25 µg/mL and the MIC [13] was 12.5 µg/mL.
